{"source": "patent US9855277B2", "about": "“Use of 5H-dibenz/b,f/azepine-5-carboxamide derivatives for treating fibromyalgia” (BIAL—PORTELA & CA, S.A., priority 2009, dated 2018)", "format_in_all_cases": "in vivo", "key": {"[1]": {"assay": "Plasma bioanalysis in CCI mice after oral ESL", "conditions": "oral ESL 50-200 mg/kg"}, "Mice (NMRI)": {"tested_on": "Mice (NMRI)", "assay": "Formalin paw test", "conditions": "300 mg/kg p.o.", "procedure": "The method, which detects analgesic activity, follows that described by Wheeler-Aceto et al (see […]-ACETO, H. & A., C. (1991), “Standardization of the rat paw formalin test for the evaluation of analgesics”, Psychopharmacology, 104, 35-44). Mice (NMRI) were given an intraplantar injection of 5% formalin (25 μl) into the posterior left paw. […] The time spent licking was counted for 15 minutes, beginning 15 minutes after injection of formalin. 10 mice were studied per group. The test was performed blind. ESL and carbamazepine (CBZ) were tested at the doses of 10, 30, 100 and 300 mg/kg p.o., and oxcarbazepine (OXC) and R-Lic were tested at the doses of 100 and 300 mg/kg p.o., administered 60 minutes before the test (i.e. 45 minutes before formalin), and compared with a vehicle control group in each experiment. Morphine (64 mg/kg p.o.), administered under the same experimental conditions, was used as reference substance."}, "[2]": {"tested_on": "mice with chronic constriction nerve injury (CCI)", "assay": "Paw withdrawal threshold (von Frey filaments) in CCI mice", "conditions": "gabapentin 100 mg/kg p.o.", "procedure": "The materials used were (as also indicated in FIGS. 1 and 2): • Vehicle: 0.5% hydroxy-propyl-methyl-cellulose (HPMC) in water, 5 ml/kg, p.o.; • 50 mg/kg, 100 mg/kg, 150 mg/kg and 200 mg/kg: ESL at 50, 100, 150 and 200 mg/kg, p.o.; • GP 100 mg/kg: gabapentin 100 mg/kg, p.o.\nThe potential analgesic effects of orally dosed ESL was investigated at doses of 50, 100, 150 and 200 mg/kg, on the paw withdrawal threshold (PWT) and these effects compared with those of the dose vehicle and gabapentin, the latter at 100 mg/kg, in a mouse model of chronic constriction nerve injury (CCI).\nEach animal received a single oral dose of either ESL (50, 100, 150, or 200 mg/kg), or gabapentin (100 mg/kg in saline) or vehicle (5 ml/kg). Behavioural testing was then performed twice, at approximately 60 and 120 minutes post-dose, to investigate the effect of treatments."}}}
{"smiles": "NC(=O)N1c2ccccc2C[C@H](O)c2ccccc21", "note": "[eslicarbazepine]", "values": [{"measurement": "plasma concentrations vs dose of ESL", "setting": "[1]", "result": "positively correlated with the doses of ESL administered"}]}
{"smiles": "NC(=O)N1c2ccccc2C=Cc2ccccc21", "note": "[CBZ, carbamazepine, reference compound]", "values": [{"measurement": "licking in the formalin test at 300 mg/kg", "setting": "Mice (NMRI)", "result": "abolished licking"}]}
{"smiles": "NCC1(CC(=O)O)CCCCC1", "note": "[gabapentin, reference compound]", "values": [{"measurement": "PWT in the contralateral limbs vs vehicle group", "setting": "[2]; 2 hour after dosing, P<0.05", "result": "significantly higher"}, {"measurement": "PWT", "setting": "[2]; positive control", "result": "significantly increased PWT"}]}
